The values below come from patent US10144746B2 (GLOBAL BLOOD THERAPEUTICS, INC., priority 2015, dated 2018).

Each structure is given as a SMILES string.

Human plasma kallikrein, sequence (P03952 391-638): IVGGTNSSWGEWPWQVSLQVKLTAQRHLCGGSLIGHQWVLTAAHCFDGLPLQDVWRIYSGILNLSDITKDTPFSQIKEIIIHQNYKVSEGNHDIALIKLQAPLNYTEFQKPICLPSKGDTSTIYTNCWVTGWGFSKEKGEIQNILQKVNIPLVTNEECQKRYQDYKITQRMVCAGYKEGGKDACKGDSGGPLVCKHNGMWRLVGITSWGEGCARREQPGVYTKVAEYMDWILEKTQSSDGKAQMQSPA
Human plasma kallikrein, sequence (P03952 20-390 partner): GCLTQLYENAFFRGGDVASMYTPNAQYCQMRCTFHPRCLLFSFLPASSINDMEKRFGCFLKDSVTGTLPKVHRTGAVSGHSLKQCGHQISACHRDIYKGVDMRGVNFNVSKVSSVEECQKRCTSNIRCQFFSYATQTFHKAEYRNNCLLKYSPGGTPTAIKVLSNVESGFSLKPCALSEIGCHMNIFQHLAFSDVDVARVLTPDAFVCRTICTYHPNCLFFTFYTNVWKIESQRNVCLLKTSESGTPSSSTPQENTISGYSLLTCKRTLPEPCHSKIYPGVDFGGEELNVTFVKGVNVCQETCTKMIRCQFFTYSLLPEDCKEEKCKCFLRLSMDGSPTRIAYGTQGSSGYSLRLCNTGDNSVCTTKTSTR

For this assay, the target named is Human plasma kallikrein (Homo sapiens (Human), UniProt P03952). In words: In vitro plasma kallikrein inhibition assay (chromogenic substrate D-Pro-Phe-Arg-pNa, absorbance at 405 nm, IC50 determination). Particulars: read-out: KLKB1 pIC50 (converted). Format: biochemical. Here is the method:
In Vitro Plasma Kallikrein Inhibition Assay
The chromogenic substrate D-Pro-Phe-Arg-pNa, 2HCl (BIOPHEN CS-31(02) from Hyphen BioMed, Neuville-Sur-oise, France) was dissolved in 5 mL deionized water and stored at 4° C. […] All other chemicals were of analytical grade.
A stock solution of 7 μM in 50% glycerol was stored at −20° C.
Enzyme reactions were conducted in “assay buffer” comprised of 20 mM HEPES at pH 7.4, 150 mM NaCl, 0.1% PEG-8000 and 0.01% Triton X-100.
Both enzyme and substrate were diluted in assay buffer.
Plate measurements were conducted using a SPECTROStar Nano reader (BMG Labtech, San Francisco, Calif., USA). […] We used discrete wavelength, precise, kinetic reads of 15 cycles with a 60 sec cycle time.
Determination of IC50 values
The test compound was dissolved in 100% DMSO. The compounds were serially diluted in DMSO in a 7 point dose response. For the assays, 66.5 μL of protease solution (protease in assay buffer) was added per well followed by the addition of 8.5 μL of compound in 100% DMSO. […] After 30 min. incubation at room temperature on an orbital shaker, the reactions were started by the addition of 10 μL substrate solution (in assay buffer, final assay concentration was 600 uM). After the addition of the substrate solution the final DMSO concentration was 10%. The plate was placed again on the shaker for 5 sec, spun at 2000 rpm for 5 sec and read on the spectrophotometer. […] The IC50 value was calculated from the plot of rate vs. inhibitor concentration by a 4 parameter logistic equation: y=A+((B−A)/([…]))
where y is the rate at the inhibitor concentration, x. A is the minimum y value at the highest inhibitor concentration and B is the y value in the absence of inhibitor, C is the IC50 value and D is the slope factor. The curve fitting was conducted with the non-linear regression routine of the analysis software XLfit (IDBS, version 5.3.1).
With `Cc1ccc(-c2ccc3c(c2)C2OC3c3ccc(C(=O)NCc4c(C)cc(N)nc4C)cc32)c(C#N)n1` (racemic) [Example 157, (±)-N-[(6-amino-2,4-dimethylpyridin-3-yl)-methyl]-12-(2-cyano-6-methylpyridin-3-yl)-15-oxatetracyclo [6.6.1.0^2,^7.0^9,1^4] pentadeca-2,4,6,9,11,13-hexaene-4-carboxamide], the IC50 was 22.9 nM.

`Cc1cc(N)nc(C)c1CNC(=O)c1ccc2c(c1)C1OC2c2ccc(-c3cccc(C(F)(F)F)c3C#N)cc21` (racemic) [Example 158, (±)-N-[(6-amino-2,4-dimethylpyridin-3-yl)-methyl]-12-[2-cyano-3-(trifluoromethyl)phenyl]-15-oxatetracyclo[6.6.1.0^2,^7.0^9,1^4] pentadeca-2,4,6,9,11,13-hexaene-4-carboxamide]: the IC50 is 112 nM.

For the molecule `Cc1cccc(Oc2ccc3c(c2)C2OC3c3ccc(C(=O)NCc4c(C)cc(N)nc4C)cc32)c1` (racemic) [Example 159, (±)-N-[(6-amino-2,4-dimethylpyridin-3-yl)-methyl]-12-(3-methylphenoxy)-15-oxatetracyclo[6.6.1.0^2,^7.0^9,1^4] pentadeca-2,4,6,9,11,13-hexaene-4-carboxamide], the IC50 was 1860 nM.

Regarding `Cc1c(CNC(=O)c2ccc3c(c2)C2OC3c3ccc(Cn4cccn4)cc32)c(F)cc2c1CNC2` (racemic) [Example 160, (±)-N-[(6-fluoro-4-methyl-2,3-dihydro-1H-isoindol-5-yl)methyl]-12-[(1H-pyrazol-1-yl)methyl]-15-oxatetracyclo [6.6.1.0^2,^7.0^9,1^4]-pentadeca-2,4,6,9,11,13-hexaene-4-carboxamide], the IC50 was 120 nM.

In the case of `Cc1cc2c(c(C)c1CNC(=O)c1ccc3c(c1)C1OC3c3ccc(Cn4cccn4)cc31)CNC2` (racemic) [Example 161, (±)-N-[(4,6-dimethyl-2,3-dihydro-1H-isoindol-5-yl)methyl]-12-[(1H-pyrazol-1-yl)methyl]-15-oxatetracyclo[6.6.1.0^2,^7.0^9,1^4]-pentadeca-2,4,6,9,11,13-hexaene-4-carboxamide], the IC50 was 1290 nM.

On to `Cc1cnn(Cc2ccc3c(c2)C2OC3c3ccc(C(=O)NCc4c(C)cc5c(c4C)CNC5)cc32)c1` (racemic) [Example 162, (±)-N-[(4,6-dimethyl-2,3-dihydro-1H-isoindol-5-yl)methyl]-12-[(4-methyl-1H-pyrazol-1-yl)methyl]-15-oxatetracyclo [6.6.1.0^2,^7.0^9,1^4]-pentadeca-2,4,6,9,11,13-hexaene-4-carboxamide], for which the IC50 is 72.4 nM.

As for `Cc1cc(CNC(=O)c2ccc3c(c2)C2OC3c3ccc(-c4ccc(F)cc4F)cc32)c(C)nc1N` (racemic) [Example 166, (±)-N-[(6-amino-2,5-dimethylpyridin-3-yl)-methyl]-12-(2,4-difluorophenyl)-15-oxatetracyclo[6.6.1.0^2,^7.0^9,1^4] pentadeca-2,4,6,9,11,13-hexaene-4-carboxamide], the IC50 was 6760 nM.

For the molecule `COc1ccncc1-c1ccc2c(c1)C1OC2c2ccc(C(=O)NCc3c(C)cc(N)nc3C)cc21` (racemic) [Example 167, (±)-N-[(6-amino-2,4-dimethylpyridin-3-yl)-methyl]-12-(4-methoxypyridin-3-yl)-15-oxatetracyclo[6.6.1.0^2,^7.0^9,1^4] pentadeca-2,4,6,9,11,13-hexaene-4-carboxamide], the IC50 was 115 nM.

For `Nc1cc(CNC(=O)c2ccc3c(c2)C2OC3c3ccc(-c4ccc(F)cc4F)cc32)ccn1` (racemic) [Example 168, (±)-N-[(2-aminopyridin-4-yl)methyl]-12-(2,4-difluorophenyl)-15-oxatetracyclo[6.6.1.0^2,^7.0^9,1^4]-pentadeca-2,4,6,9,11,13-hexaene-4-carboxamide], the IC50 is 20000 nM.
